# Laboratory results from patent US9694016B2 (Novartis AG, priority 2013, dated 2017).
# Target: b-Raf (V600E) (Homo sapiens (Human), UniProt P15056, V600E)
# Conditions: read-out: b-Raf IC-50
# Sequence of b-Raf (V600E) (P15056 whole entry V600E): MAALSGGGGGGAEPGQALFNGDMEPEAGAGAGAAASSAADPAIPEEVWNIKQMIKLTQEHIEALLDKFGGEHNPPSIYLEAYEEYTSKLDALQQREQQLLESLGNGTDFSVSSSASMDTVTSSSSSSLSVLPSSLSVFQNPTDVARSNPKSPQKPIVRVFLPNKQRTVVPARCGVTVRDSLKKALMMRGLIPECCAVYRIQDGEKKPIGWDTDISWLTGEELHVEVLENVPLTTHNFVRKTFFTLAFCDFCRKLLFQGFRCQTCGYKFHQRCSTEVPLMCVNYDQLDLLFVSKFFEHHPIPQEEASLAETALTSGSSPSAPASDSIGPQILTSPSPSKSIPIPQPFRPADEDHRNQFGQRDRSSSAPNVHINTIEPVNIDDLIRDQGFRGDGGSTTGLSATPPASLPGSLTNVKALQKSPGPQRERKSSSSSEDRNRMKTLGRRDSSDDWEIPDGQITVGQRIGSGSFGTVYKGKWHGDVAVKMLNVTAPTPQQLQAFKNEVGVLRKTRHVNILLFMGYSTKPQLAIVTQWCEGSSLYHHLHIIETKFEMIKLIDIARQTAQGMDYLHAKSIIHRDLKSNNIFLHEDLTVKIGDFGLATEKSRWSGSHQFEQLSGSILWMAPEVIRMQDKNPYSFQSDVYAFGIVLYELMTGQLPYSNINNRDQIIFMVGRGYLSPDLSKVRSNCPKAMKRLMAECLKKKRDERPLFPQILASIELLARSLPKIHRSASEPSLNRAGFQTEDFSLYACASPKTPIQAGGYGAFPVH
row,SMILES,IC50
1,"Cc1ccc(NC(=O)c2cccc(C(F)(F)F)c2)cc1-c1cc(N2CCOCC2)nc(N2CCOCC2)n1 [Example 10, N-(3-(2,6-dimorpholinopyrimidin-4-yl)-4-methylphenyl)-3-(trifluoromethyl)benzamide]",0.3 nM

# Same assay, conditions: read-out: b-Raf IC-50; AlphaScreen, 60 min pre-incubation, 3 hours reaction
row,IC50,SMILES
1,21 nM,"Cc1ncc(NC(=O)c2ccnc(S(C)(=O)=O)c2)cc1-c1cc(N2CCOCC2)n(C)c(=O)c1 [Example 504, N-(1′,2-dimethyl-6′-morpholino-2′-oxo-1′,2′-dihydro-[3,4′-bipyridin]-5-yl)-2-(methylsulfonyl)isonicotinamide]"
2,5.5 nM,"Cc1ncc(NC(=O)c2cccc(C(F)(F)F)c2)cc1-c1cc(N2CCOCC2)nc(NC2CNC2)n1 [Example 787, N-(5-(2-(azetidin-3-ylamino)-6-morpholinopyrimidin-4-yl)-6-methylpyridin-3-yl)-3-(trifluoromethyl)benzamide]"
3,6 nM,"Cc1ncc(NC(=O)c2ccnc(C(C)(C)F)c2)cc1-c1cncc(N2CCOCC2)n1 [Example 534, 2-(2-fluoropropan-2-yl)-N-(6-methyl-5-(6-morpholinopyrazin-2-yl)pyridin-3-yl)isonicotinamide]"
4,9.6 nM,"Cc1ccc(NC(=O)c2ccnc(C(C)(C)O)c2)cc1-c1cc(N2CCOCC2)c(=O)n(C)n1 [Example 638, 2-(2-hydroxypropan-2-yl)-N-(4-methyl-3-(1-methyl-5-morpholino-6-oxo-1,6-dihydropyridazin-3-yl)phenyl)isonicotinamide]"
5,1.7 nM,"Cc1ccc(NC(=O)c2ccnc(C(C)(C)C#N)c2)cc1-c1cc(N2CCOCC2)n2nccc2n1 [Example 792, 2(2-cyanopropan-2-yl)-N-(4-methyl-3(7-morpholinopyrazolo[1,5-a]pyrimidin-5-yl)phenyl)isonicotinamide]"
6,0.9 nM,"CCOc1nnc(-c2cc(NC(=O)c3cccc(C(F)(F)F)c3)cnc2C)cc1N1CCOCC1 [Example 609, N-(5-(6-ethoxy-5-morpholinopyridazin-3-yl)-6-methylpyridin-3-yl)-3-(trifluoromethyl)benzamide]"
7,10.8 nM,"Cc1ncc(NC(=O)c2cccc(C(F)(F)F)c2)cc1-c1cc(N2CCOCC2)nc(N2C(=O)OC[C@@H]2C)n1 [Example 781, (S)—N-(6-methyl-5-(2-(4-methyl-2-oxooxazolidin-3-yl)-6-morpholinopyrimidin-4-yl)pyridin-3-yl)-3-(trifluoromethyl)benzamide]"
8,1 nM,"Cc1ccc(NC(=O)c2cc(C(F)(F)F)ccn2)cc1-c1cc(N2CCOCC2)c(OCCO)nn1 [Example 586, N-(3-(6-(2-hydroxyethoxy)-5-morpholinopyridazin-3-yl)-4-methylphenyl)-4-(trifluoromethyl)picolinamide]"
9,4.7 nM,"CCOc1nnc(-c2cc(NC(=O)c3ccnc(C(C)(C)C#N)c3)ccc2C)cc1N1CCOC[C@H]1C [Example 624, (R)-2-(2-cyanopropan-2-yl)-N-(3-(6-ethoxy-5-(3-methylmorpholino)pyridazin-3-yl)-4-methylphenyl)isonicotinamide]"
10,1.1 nM,"Cc1ccc(NC(=O)c2ccnc(C(C)(F)F)c2)cc1-c1cc(N2CCOCC2)c(OCCO)nn1 [Example 587, 2-(1,1-difluoroethyl)-N-(3-(6-(2-hydroxyethoxy)-5-morpholinopyridazin-3-yl)-4-methylphenyl)isonicotinamide]"
11,3.9 nM,"COc1nnc(-c2cc(NC(=O)c3ccnc(C(C)(C)O)c3)ccc2C)cc1N1CCOCC1 [Example 556, 2-(2-hydroxypropan-2-yl)-N-(3-(6-methoxy-5-morpholinopyridazin-3-yl)-4-methylphenyl)isonicotinamide]"
12,1.8 nM,"Cc1ncc(NC(=O)c2cccc(C(F)(F)F)c2)cc1-c1cc(N2CCOCC2)nc(NC(C)(C)CO)n1 [Example 752, N-(5-(2-((1-hydroxy-2-methylpropan-2-yl)amino)-6-morpholinopyrimidin-4-yl)-6-methylpyridin-3-yl)-3-(trifluoromethyl)benzamide]"
13,1.9 nM,"CCOc1nnc(-c2cc(NC(=O)c3ccnc(C(C)(F)F)c3)cnc2C)cc1N1CCOCC1 [Example 620, 2-(1,1-difluoroethyl)-N-(5-(6-ethoxy-5-morpholinopyridazin-3-yl)-6-methylpyridin-3-yl)isonicotinamide]"
14,1.5 nM,"CCC(F)(F)c1cc(C(=O)Nc2ccc(C)c(-c3cc(N4CCOCC4)c(OCCO)nn3)c2)ccn1 [Example 589, 2-(1,1-difluoropropyl)-N-(3-(6-(2-hydroxyethoxy)-5-morpholinopyridazin-3-yl)-4-methylphenyl)isonicotinamide]"

row,SMILES,IC50
1,"Cc1ccc(NC(=O)c2ccnc(C(C)(F)F)c2)cc1-c1cc(N2C3CCC2COC3)n(C)c(=O)c1 [Example 527, N-(3-(6-(3-oxa-8-azabicyclo[3.2.1]octan-8-yl)-1-methyl-2-oxo-1,2-dihydropyridin-4-yl)-4-methylphenyl)-2-(1,1-difluoroethyl)isonicotinamide]",5.6 nM

# Same assay, conditions: read-out: b-Raf IC-50; AlphaScreen, 60 min pre-incubation, reaction 3 hours at room temperature
row,IC50,SMILES
1,0.91 nM,"Cc1ccc(NC(=O)c2ccnc(C3CC3)c2)cc1-c1cnc(OCCO)c(N2CCOCC2)c1 [Example 999, 2-cyclopropyl-N-(3-(6-(2-hydroxyethoxy)-5-morpholinopyridin-3-yl)-4-methylphenyl)isonicotinamide]"
2,1.12 nM,"Cc1ccc(NC(=O)c2cc(C(F)(F)F)ccn2)cc1-c1cc(OCCO)nc(N2CCOCC2)c1 [Example 1163, N-(3-(2-(2-hydroxyethoxy)-6-morpholinopyridin-4-yl)-4-methylphenyl)-4-(trifluoromethyl)picolinamide]"
3,13.3 nM,"Cc1ccc(NC(=O)c2ccnc(C(F)(F)F)c2)cc1-c1cc(NCCO)nc(N2CCOCC2)c1F [Example 1008, N-(3-(3-fluoro-6-((2-hydroxyethyl)amino)-2-morpholinopyridin-4-yl)-4-methylphenyl)-2-(trifluoromethyl)isonicotinamide]"
4,7.62 nM,"Cc1ncc(NC(=O)c2ccnc(C(C)(C)F)c2)cc1-c1cc(C2COCCO2)nc(N2CCOCC2)c1 (stereo not drawn) [Example 1167, N-(2′-(1,4-dioxan-2-yl)-2-methyl-6′-morpholino-[3,4′-bipyridin]-5-yl)-2-(2-fluoropropan-2-yl)isonicotinamide]"
5,7.6 nM,"Cc1ncc(NC(=O)c2cccc(C(F)(F)F)c2)cc1-c1nc2c(c(N3CCOCC3)n1)CS(=O)(=O)C2 [Example 886, N-(6-methyl-5-(4-morpholino-6,6-dioxido-5,7-dihydrothieno[3,4-d]pyrimidin-2-yl)pyridin-3-yl)-3-(trifluoromethyl)benzamide]"
6,2.25 nM,"Cc1ncc(NC(=O)c2ccnc(C(C)(F)F)c2)cc1-c1cc(N2CCOCC2)c(OC(C)C)nn1 [Example 912, 2-(1,1-difluoroethyl)-N-(5-(6-isopropoxy-5-morpholinopyridazin-3-yl)-6-methylpyridin-3-yl)isonicotinamide]"
7,5.74 nM,"Cc1ncc(NC(=O)c2ccnc(C(C)(C)C#N)c2)cc1-c1cnc(OC2CC3(COC3)C2)c(N2CCOCC2)c1 [Example 967, N-(6′-(2-oxaspiro[3.3]heptan-6-yloxy)-2-methyl-5′-morpholino-[3,3′-bipyridin]-5-yl)-2-(2-cyanopropan-2-yl)isonicotinamide]"
8,1.81 nM,"CCOc1cc(-c2cc(NC(=O)c3ccnc(C(C)(F)F)c3)cnc2C)cc(N2CCOCC2)n1 [Example 1143, 2-(1,1-difluoroethyl)-N-(2′-ethoxy-2-methyl-6′-morpholino-[3,4′-bipyridin]-5-yl)isonicotinamide]"
9,100 nM,"Cc1ncc(NC(=O)c2ccnc(C(C)(C)O)c2)cc1-c1cc(N2CCOCC2)c2nccn2c1 [Example 878, 2-(2-hydroxypropan-2-yl)-N-(6-methyl-5-(8-morpholinoimidazo[1,2-a]pyridin-6-yl)pyridin-3-yl)isonicotinamide]"

# Same assay, conditions: read-out: b-Raf IC-50; Table 2; AlphaScreen, 3 hours reaction
row,IC50,SMILES
1,6 nM,"Cc1ncc(NC(=O)c2ccnc(C(C)(C)F)c2)cc1-c1cnc(Cl)c(N2CCOCC2)c1 [Example 290, N-(6′-chloro-2-methyl-5′-morpholino-[3,3-bipyridin]-5-yl)-2-(2-fluoropropan-2-yl)isonicotinamide]"
2,6 nM,"Cc1ccc(NC(=O)c2cnnc(C(C)(C)C#N)c2)cc1-c1cc(N2CCOCC2)c(=O)n(C)c1 [Example 360, 6-(2-cyanopropan-2-yl)-N-(4-methyl-3-(1-methyl-5-morpholino-6-oxo-1,6-dihydropyridin-3-yl)phenyl)pyridazine-4-carboxamide]"
3,4.6 nM,"Cc1ncc(NC(=O)c2cccc(C(C)(F)F)c2)cc1-c1cc(N2CCOCC2)c(=O)n(C)c1 [Example 393, 3-(1,1-difluoroethyl)-N-(1′,2-dimethyl-5′-morpholino-6′-oxo-1′,6′-dihydro-[3,3′-bipyridin]-5-yl)benzamide]"
4,0.6 nM,"Cc1ncc(NC(=O)c2cccc(C(F)(F)F)c2)cc1-c1cnc(N(C)C)c(N2CCOCC2)c1 [Example 307, N-(6′-(dimethylamino)-2-methyl-5′-morpholino-[3,3′-bipyridin]-5-yl)-3-(trifluoromethyl)benzamide]"
5,1 nM,"Cc1ccc(NC(=O)c2cccc(C(F)(F)F)c2)cc1-c1cc(N2CCOCC2)c(=O)n(CC#N)c1 [Example 147, N-(3-(1-(cyanomethyl)-5-morpholino-6-oxo-1,6-dihydropyridin-3-yl)-4-methylphenyl)-3-(trifluoromethyl)benzamide]"
6,4.4 nM,"Cc1ccc(NC(=O)c2ccnc(C(C)(C)C#N)c2)cc1-c1cc(N2CCOCC2)c(=O)n(CCC#N)c1 [Example 335, N-(3-(1-(2-cyanoethyl)-5-morpholino-6-oxo-1,6-dihydropyridin-3-yl)-4-methylphenyl)-2-(2-cyanopropan-2-yl)isonicotinamide]"
7,1.8 nM,"Cc1ncc(NC(=O)c2cccc(C(F)(F)F)c2)cc1-c1cnc(O[C@H]2CCOC2)c(N2CCOCC2)c1 [Example 310, (S)—N-(2-methyl-5′-morpholino-6′-((tetrahydrofuran-3-yl)oxy)-[3,3′-bipyridin]-5-yl)-3-(trifluoromethyl)benzamide]"
8,6.3 nM,"COc1ncc(-c2cc(NC(=O)c3ccnc(C(C)(C)F)c3)cnc2C)cc1N1CCOCC1 [Example 281, N-(6′-methoxy-2-methyl-5′-morpholino-[3,3′-bipyridin]-5-yl)-2-(2-fluoropropan-2-yl)isonicotinamide]"
